Each structure is given as a SMILES string. Where “and” joins values, the source holds several entries; their conditions need not be identical. Identical values can stand only once. Toxic doses and inconclusive results are not listed.

Data on 21 compounds can be found in PubChem BioAssay AID256 (DTP/NCI, 2004).

This experiment relates to CD2F1 mice, L1210 leukemia ip, survival T/C. Kind of experiment: NCI In Vivo Anticancer Drug Screen. Data for tumor model L1210 Leukemia (intraperitoneal) in CD2F1 (CDF1) mice. The conditions noted are these: higher = longer survival. In a few lines:
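Compound-dosed mice with transplantable tumor versus matched vehicle controls; endpoint ratio T/C reported.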

Setting [1] is: endpoint: mean survival time, dose: 50.0 mg/kg/injection, schedule: Q01DX009 (ip), vehicle: saline.
Setting [2] is: endpoint: mean survival time, dose: 100.0 mg/kg/injection, schedule: Q01DX009 (ip), vehicle: saline.
The mark [3] stands for this setting: endpoint: mean survival time, dose: 200.0 mg/kg/injection, schedule: Q01DX009 (ip), vehicle: saline.
Where [4] appears, read: endpoint: mean survival time, dose: 12.5 mg/kg/injection, schedule: Q01DX009 (ip), vehicle: saline.
Where [5] appears, read: endpoint: mean survival time, dose: 25.0 mg/kg/injection, schedule: Q01DX009 (ip), vehicle: saline.
[6] abbreviates: endpoint: mean survival time, dose: 100.0 mg/kg/injection, schedule: Q04DX003 (ip), vehicle: saline with Tween-80.
The mark [7] stands for this setting: endpoint: mean survival time, dose: 200.0 mg/kg/injection, schedule: Q04DX003 (ip), vehicle: saline with Tween-80.
Setting [8] is: endpoint: mean survival time, dose: 400.0 mg/kg/injection, schedule: Q04DX003 (ip), vehicle: saline with Tween-80.
Where [9] appears, read: endpoint: mean survival time, dose: 100.0 mg/kg/injection, schedule: Q01DX001 (ip), vehicle: saline with Tween-80.
Setting [10] is: endpoint: mean survival time, dose: 200.0 mg/kg/injection, schedule: Q01DX001 (ip), vehicle: saline with Tween-80.
[11] abbreviates: endpoint: mean survival time, dose: 400.0 mg/kg/injection, schedule: Q01DX001 (ip), vehicle: saline with Tween-80.
[12] abbreviates: endpoint: mean survival time, dose: 50.0 mg/kg/injection, schedule: Q04DX002 (ip), vehicle: saline with Tween-80.
[13] abbreviates: endpoint: mean survival time, dose: 100.0 mg/kg/injection, schedule: Q04DX002 (ip), vehicle: saline with Tween-80.
Where [14] appears, read: endpoint: mean survival time, dose: 200.0 mg/kg/injection, schedule: Q04DX002 (ip), vehicle: saline with Tween-80.
[15] abbreviates: endpoint: mean survival time, dose: 400.0 mg/kg/injection, schedule: Q04DX002 (ip), vehicle: saline with Tween-80.

`CC12CCc3c(ccc4cc(O)ccc34)C1CCC2=O` (stereo not given): the T/C was 100 % of control (endpoint: mean survival time, dose: 100.0 mg/kg/injection, schedule: Q04DX003 (ip), vehicle: saline); 97 % of control (endpoint: mean survival time, dose: 200.0 mg/kg/injection, schedule: Q04DX003 (ip), vehicle: saline); 97 % of control (endpoint: mean survival time, dose: 400.0 mg/kg/injection, schedule: Q04DX003 (ip), vehicle: saline).
`CC(Br)C(C)Br` (stereo not given): the T/C under setting [1] is 103 % of control, the T/C under setting [2] was 95 % of control and the T/C under setting [3] is 100 % of control.
In the case of `OCC12COCN1COC2`, the T/C under setting [4] was 98 % of control and 104 % of control; the T/C under setting [5] was 94 % of control and 96 % of control; the T/C under setting [1] is 101 % of control and 104 % of control; the T/C under setting [2] was 98 % of control and 101 % of control; the T/C under setting [3] is 96 % of control and 106 % of control; the T/C (endpoint: mean survival time, dose: 400.0 mg/kg/injection, schedule: Q01DX009 (ip), vehicle: saline) is 109 % of control and 112 % of control.
As to `O=C(Nc1ccc2c3c(ccc(C(=O)O)c13)CC2)c1ccccc1`, the T/C reads like this: under setting [6], 97 % of control; under setting [7], 95 % of control; under setting [8], 104 % of control.
As for `Cn1c(=O)c2c(ncn2CC(=O)NNC(=S)Nc2ccccc2)n(C)c1=O`, the T/C (endpoint: mean survival time, dose: 12.5 mg/kg/injection, schedule: Q01DX005 (ip), vehicle: distilled water + Tween-80) is 121 % of control; the T/C (endpoint: mean survival time, dose: 25.0 mg/kg/injection, schedule: Q01DX005 (ip), vehicle: distilled water + Tween-80) was 121 % of control; the T/C (endpoint: mean survival time, dose: 50.0 mg/kg/injection, schedule: Q01DX005 (ip), vehicle: distilled water + Tween-80) was 93 % of control; the T/C (endpoint: mean survival time, dose: 100.0 mg/kg/injection, schedule: Q01DX005 (ip), vehicle: distilled water + Tween-80) is 106 % of control; the T/C (endpoint: mean survival time, dose: 200.0 mg/kg/injection, schedule: Q01DX005 (ip), vehicle: distilled water + Tween-80) was 93 % of control.
`CCOC(=O)NS(=O)(=O)Nc1ccccc1`: the T/C was 104 % of control (endpoint: mean survival time, dose: 100.0 mg/kg/injection, schedule: Q01DX009 (ip), vehicle: saline with Tween-80); 102 % of control (endpoint: mean survival time, dose: 200.0 mg/kg/injection, schedule: Q01DX009 (ip), vehicle: saline with Tween-80); 96 % of control (endpoint: mean survival time, dose: 400.0 mg/kg/injection, schedule: Q01DX009 (ip), vehicle: saline with Tween-80).
As for `CN(CCN1CCCCC1)C(=O)C(O)(c1ccccc1)c1ccccc1`, the T/C is 104 % of control (endpoint: mean survival time, dose: 75.0 mg/kg/injection, schedule: Q01DX001 (ip), vehicle: saline) and 98 % of control (endpoint: mean survival time, dose: 150.0 mg/kg/injection, schedule: Q01DX001 (ip), vehicle: saline).
`CC1(C)N=C(N)N=C(N)N1c1ccc(OCCCOc2ccc(S(=O)(=O)F)cc2)c(Cl)c1`: the T/C was 104 % of control (endpoint: mean survival time, dose: 6.25 mg/kg/injection, schedule: Q01DX009 (ip), vehicle: saline); 98 % of control under setting [4]; 104 % of control under setting [5].
Turning to `CCN(CC)C(=O)[S-].CCN(CC)C(=O)[S-].[Ni+2]`, the T/C by setting is: under setting [9], 94 % of control; under setting [10], 98 % of control; under setting [11], 102 % of control.
In the case of `CN(C)N(Cc1ccccc1)/N=N/c1nc[nH]c1C(N)=O`, the T/C (endpoint: mean survival time, dose: 50.0 mg/kg/injection, schedule: Q01DX001 (ip), vehicle: Klucel (hydroxypropylcellulose) (HPC)) was 107 % of control; the T/C (endpoint: mean survival time, dose: 50.0 mg/kg/injection, schedule: Q01DX009 (ip), vehicle: Klucel (hydroxypropylcellulose) (HPC)) was 105 % of control; the T/C (endpoint: mean survival time, dose: 100.0 mg/kg/injection, schedule: Q01DX001 (ip), vehicle: Klucel (hydroxypropylcellulose) (HPC)) was 98 % of control; the T/C (endpoint: mean survival time, dose: 100.0 mg/kg/injection, schedule: Q01DX009 (ip), vehicle: Klucel (hydroxypropylcellulose) (HPC)) is 96 % of control; the T/C (endpoint: mean survival time, dose: 200.0 mg/kg/injection, schedule: Q01DX001 (ip), vehicle: Klucel (hydroxypropylcellulose) (HPC)) is 90 % of control; the T/C (endpoint: mean survival time, dose: 200.0 mg/kg/injection, schedule: Q01DX009 (ip), vehicle: Klucel (hydroxypropylcellulose) (HPC)) was 107 % of control.
`O=c1c2cccc3cccc(c32)c2cc(-c3ccccc3)nn12`: the T/C is 100 % of control (endpoint: mean survival time, dose: 25.0 mg/kg/injection, schedule: Q04DX002 (ip), vehicle: saline with Tween-80); 92 % of control under setting [12]; 96 % of control under setting [13]; 103 % of control under setting [14].
As for `O=C(N/N=C/c1ccc(O)cc1)c1ccncc1`, the T/C by setting is: under setting [12], 95 % of control; under setting [13], 91 % of control; under setting [14], 100 % of control; under setting [15], 88 % of control.
On to `C=CC(=O)OCCCS(=O)(=O)[O-].C=CC(=O)OCCCS(=O)(=O)[O-].NC1CCCCC1N.[Pt+4]`, for which the T/C is 108 % of control (endpoint: median survival time, dose: 3.12 mg/kg/injection, schedule: Q04DX003 (ip), vehicle: saline with Tween-80); 119 % of control and 109 % of control (endpoint: median survival time, dose: 6.25 mg/kg/injection, schedule: Q04DX003 (ip), vehicle: saline with Tween-80); 119 % of control and 109 % of control (endpoint: median survival time, dose: 12.5 mg/kg/injection, schedule: Q04DX003 (ip), vehicle: saline with Tween-80); 113 % of control and 120 % of control (endpoint: median survival time, dose: 25.0 mg/kg/injection, schedule: Q04DX003 (ip), vehicle: saline with Tween-80); 158 % of control and 168 % of control (endpoint: median survival time, dose: 100.0 mg/kg/injection, schedule: Q04DX003 (ip), vehicle: saline with Tween-80); 204 % of control and 301 % of control (endpoint: median survival time, dose: 200.0 mg/kg/injection, schedule: Q04DX003 (ip), vehicle: saline with Tween-80).
`CN(C)c1ccc(N=Nc2ccc([As](=O)(O)O)cc2)cc1`: the T/C is, setting by setting: (endpoint: mean survival time, dose: 6.25 mg/kg/injection, schedule: Q01DX009 (ip), vehicle: saline with Tween-80) 91 % of control; (endpoint: mean survival time, dose: 12.5 mg/kg/injection, schedule: Q01DX001 (ip), vehicle: saline with Tween-80) 110 % of control; (endpoint: mean survival time, dose: 12.5 mg/kg/injection, schedule: Q01DX009 (ip), vehicle: saline with Tween-80) 89 % of control.
For `c1ccc2c(c1)ccc1c2c[n+](CCCCCCCC[n+]2cc3c4ccccc4ccc3c3ccccc32)c2ccccc12`, the T/C runs as follows: (endpoint: mean survival time, dose: 1.56 mg/kg/injection, schedule: Q04DX003 (ip), vehicle: distilled water + Tween-80) 114 % of control; (endpoint: mean survival time, dose: 3.13 mg/kg/injection, schedule: Q04DX003 (ip), vehicle: distilled water + Tween-80) 124 % of control.
For the compound `CCCOC(=O)c1ccc(N)cc1`, the T/C is, setting by setting: under setting [9], 102 % of control; under setting [10], 104 % of control; under setting [11], 103 % of control.
For `O=c1[nH]c2c(c(=O)n1-c1ccccc1)CCO2`, the T/C runs as follows: (endpoint: mean survival time, dose: 100.0 mg/kg/injection, schedule: Q01DX001 (ip), vehicle: saline) 98 % of control; (endpoint: mean survival time, dose: 200.0 mg/kg/injection, schedule: Q01DX001 (ip), vehicle: saline) 91 % of control; (endpoint: mean survival time, dose: 400.0 mg/kg/injection, schedule: Q01DX001 (ip), vehicle: saline) 98 % of control.
Turning to `O=C1C=C(c2ccccc2)C(=O)C(c2ccccc2)=C1c1ccccc1`, the T/C runs as follows: under setting [13], 94 % of control; under setting [14], 94 % of control; under setting [15], 90 % of control.
`CC(=O)Nc1ccc(C(C)=O)cc1`: the T/C is 108 % of control under setting [6], 106 % of control under setting [7] and 93 % of control under setting [8].
For `O=C(O)C1CC(n2cnc3c(=O)[nH]cnc32)CN1` (stereo not given), the T/C is, setting by setting: under setting [12], 96 % of control; under setting [13], 110 % of control; under setting [14], 93 % of control; under setting [15], 93 % of control.
For the compound `Cc1[nH]nc(C(F)(F)F)c1N=NN1CCOCC1`, the T/C reads like this: (endpoint: mean survival time, dose: 75.0 mg/kg/injection, schedule: Q01DX001 (ip), vehicle: other) 100 % of control; (endpoint: mean survival time, dose: 150.0 mg/kg/injection, schedule: Q01DX001 (ip), vehicle: other) 109 % of control; (endpoint: mean survival time, dose: 300.0 mg/kg/injection, schedule: Q01DX001 (ip), vehicle: other) 101 % of control.
